The text below walks through data of paper PMC10751319, “Bacterial extracellular vesicles: towards realistic models for bacterial membranes in molecular interaction studies by surface plasmon resonance” (Frontiers in Molecular Biosciences, 2023).

The test system of one assay is E. coli ΔtolA JW0729-KC. It is filed as cell-based, Escherichia coli. Conditions: Mueller-Hinton broth, 256 to 2 μg/mL, 37°C, 18 h. Here is the method: (§1) MIC for all test peptides was determined following EUCAST clinical standard ([Hasselmann, 2003]). Briefly, 3–4 colonies were picked by a cotton swab from freshly plated cultures on agar and resuspended in sterile saline solution. Turbidity of inoculum was adjusted to 0.5 McFarland standard units prior to ×100 dilution in Mueller-Hinton broth. Antimicrobial peptides were dissolved in the broth at the stock concentration of 512 μg/mL. […] Positive control of bacterial culture diluted with broth and negative control of blank broth were included for each bacterial strain. The MICs were determined after incubation of the plates at 37°C for 18 h and red as the concentration of antimicrobial peptide at the next to the last well where bacterial growth was detected.

A further assay has as its system P. aeruginosa K34-7. It is filed as cell-based, Pseudomonas aeruginosa. The protocol:
as §1

In assay [1] the test system is liposomes prepared from E. coli ΔtolA lipid isolate. Kind of assay: SPR interaction with immobilized liposomes. Conditions: for koff rate constant determined by SPR / Calculated kon rate constant: Liposomes from E. coli ΔtolA lipid isolate; for koff rate constant determined by SPR: 400 s dissociation phase, Figueira et al. 2017 formalism, 25°C; for koff rate constant determined by SPR / Kd: three parallels; for Calculated kon rate constant: calculated from KD and koff (KD=koff/kon); for Kd: read-out: Dissociation constant KD determined by SPR, Liposomes from E. coli ΔtolA lipid isolate on L1 chip, Biacore T200, 25°C, 10 mM HEPES, 150 mM NaCl, steady-state fit.
Excerpt: (§2) By this, the dissociation constant KD and the disassociation rate koff were obtained. These constants allowed us to calculate kon rate, using Eq. 4.

Another assay has as its system bEVs from E. coli ΔtolA. The following applies: for koff rate constant determined by SPR / Calculated kon rate constant: E. coli ΔtolA bEVs; for koff rate constant determined by SPR: 400 s dissociation phase, Figueira et al. 2017 formalism, 25°C; for koff rate constant determined by SPR / Kd: three parallels; for Calculated kon rate constant: calculated from KD and koff (KD=koff/kon); for Kd: read-out: Dissociation constant KD determined by SPR, E. coli ΔtolA bEVs on L1 chip, Biacore T200, 25°C, 10 mM HEPES, 150 mM NaCl, steady-state fit.

A further assay has as its system A. baumannii K47-42. The format is cell-based, Acinetobacter baumannii. Here is the method: as §1
A further assay has as its system bEVs from P. aeruginosa. As to the kind of experiment: SPR interaction with immobilized bEVs. The following applies: for koff rate constant determined by SPR / Calculated kon rate constant: P. aeruginosa bEVs; for koff rate constant determined by SPR: 400 s dissociation phase, Figueira et al. 2017 formalism, 25°C; for koff rate constant determined by SPR / Kd: three parallels; for Kd: read-out: Dissociation constant KD determined by SPR, P. aeruginosa bEVs on L1 chip, Biacore T200, 25°C, 10 mM HEPES, 150 mM NaCl, steady-state fit; for Calculated kon rate constant: calculated from KD and koff (KD=koff/kon).

For the next assay, the system named is bEVs from K. pneumoniae. Kind of assay: SPR interaction with immobilized bEVs. The following applies: for koff rate constant determined by SPR / Calculated kon rate constant: K. pneumoniae bEVs; for koff rate constant determined by SPR: 400 s dissociation phase, Figueira et al. 2017 formalism, 25°C; for koff rate constant determined by SPR / Kd: three parallels; for Kd: read-out: Dissociation constant KD determined by SPR, K. pneumoniae bEVs on L1 chip, Biacore T200, 25°C, 10 mM HEPES, 150 mM NaCl, steady-state fit; for Calculated kon rate constant: calculated from KD and koff (KD=koff/kon).

The conditions of assay [2]: strain not stated; ref Junkes et al., 2008; Bagheri, 2010; Gopal et al., 2012; Finger et al., 2015; Rainsford et al., 2022; Jakubec et al., 2023; cited from earlier work.
For another assay, the system named is K. pneumoniae K47-25. It is filed as cell-based, Klebsiella pneumoniae. Here is the method: as §1
The next assay has as its system bEVs from A. baumannii. Kind of assay: SPR interaction with immobilized bEVs. The following applies: for koff rate constant determined by SPR / Calculated kon rate constant: A. baumannii bEVs; for koff rate constant determined by SPR: 400 s dissociation phase, Figueira et al. 2017 formalism, 25°C; for koff rate constant determined by SPR / Kd: three parallels; for Kd: read-out: Dissociation constant KD determined by SPR, A. baumannii bEVs on L1 chip, Biacore T200, 25°C, 10 mM HEPES, 150 mM NaCl, steady-state fit; for Calculated kon rate constant: calculated from KD and koff (KD=koff/kon).

The mark [3] stands for this setting: P. aeruginosa K34-7, clinical multi-resistant, Mueller-Hinton broth, 256 to 2 μg/mL, 37°C, 18 h.
Setting [4] is: A. baumannii K47-42, clinical multi-resistant, Mueller-Hinton broth, 256 to 2 μg/mL, 37°C, 18 h.
Where [5] appears, read: K. pneumoniae K47-25, clinical multi-resistant, Mueller-Hinton broth, 256 to 2 μg/mL, 37°C, 18 h.

Converted amounts (≈) assume the structure as drawn. Where two headings read alike, the source gives them in different places. Non-standard residues stand in square brackets, D forms with d. Residues, ends and D or L forms follow the SMILES beside them.

Excerpt for bEVs from A. baumannii: as §2
Excerpt for bEVs from E. coli ΔtolA: as §2
Excerpt for bEVs from K. pneumoniae: as §2
Excerpt for bEVs from P. aeruginosa: as §2

As to `CC(C)C[C@@H]1NC(=O)[C@@H](CCCNC(=N)N)NC(=O)[C@H](CCCCN)NC(=O)[C@H](CC(N)=O)NC(=O)[C@@H](Cc2c[nH]c3ccccc23)NC(=O)[C@H](Cc2c[nH]c3ccccc23)NC1=O` [c-LWwNKr, reference compound] (cyclo(LW[dW]NK[dR])), the MIC in the assay on E. coli ΔtolA JW0729-KC, against P. aeruginosa K34-7 (setting [3]), in the assay on A. baumannii K47-42 (setting [4]) and in the assay with K. pneumoniae K47-25 (setting [5]) was more than 256 µg/mL throughout. Moreover, the “koff rate constant determined by SPR” value in assay [1] stood at 1.67 ± 0.45 s⁻¹; with bEVs from E. coli ΔtolA, 1.42 ± 0.27 s⁻¹; in the assay with bEVs from P. aeruginosa it was 1.78 ± 0.54 s⁻¹; in the assay on bEVs from K. pneumoniae, 1.75 ± 0.55 s⁻¹; with bEVs from A. baumannii, 1.72 ± 0.45 s⁻¹. Also, the “Calculated kon rate constant” value is 2000 ± 1000 M⁻¹ s⁻¹ in assay [1] and 3000 ± 1000 M⁻¹ s⁻¹ with bEVs from E. coli ΔtolA. Moreover, the Kd (commonly the concentration at which binding is half-saturated) in assay [1] turned out to be 966 ± 170 µM; in the assay with bEVs from E. coli ΔtolA, 406 ± 38.1 µM; at bEVs from P. aeruginosa, 1040 ± 270 µM; at bEVs from K. pneumoniae, 1080 ± 49 µM; on bEVs from A. baumannii it was 858 ± 61.4 µM. Also, the “MIC (without antimicrobial activity)” value in assay [2] is more than 256 µg/mL.
In the case of `NCCCC[C@@H]1NC(=O)[C@H](Cc2c[nH]c3ccccc23)NC(=O)[C@H](CCCCN)NC(=O)[C@H](Cc2c[nH]c3ccccc23)NC(=O)[C@H](CCCCN)NC(=O)[C@H](Cc2c[nH]c3ccccc23)NC1=O` [c-WKWKWK] (cyclo(WKWKWK)), the MIC – broadly, the smallest concentration in the dilution series that meets the test's criterion for growth inhibition – is 256 µg/mL (≈ 271 µM) in the assay with E. coli ΔtolA JW0729-KC, more than 256 µg/mL against P. aeruginosa K34-7 (setting [3]), more than 256 µg/mL with A. baumannii K47-42 (setting [4]) and more than 256 µg/mL against K. pneumoniae K47-25 (setting [5]). Besides, the “koff rate constant determined by SPR” value came to 0.95 ± 0.20 s⁻¹ in assay [1]; 1.42 ± 0.16 s⁻¹ in the assay with bEVs from E. coli ΔtolA; 1.52 ± 0.37 s⁻¹ in the assay with bEVs from P. aeruginosa; 1.51 ± 0.54 s⁻¹ with bEVs from K. pneumoniae; 0.82 ± 0.11 s⁻¹ in the assay with bEVs from A. baumannii. Moreover, the “Calculated kon rate constant” value in assay [1] was 4000 ± 1000 M⁻¹ s⁻¹; in the assay with bEVs from E. coli ΔtolA, 4000 ± 1000 M⁻¹ s⁻¹; in the assay with bEVs from P. aeruginosa it was 2000 ± 1000 M⁻¹ s⁻¹; in the assay on bEVs from K. pneumoniae it was 2000 ± 1000 M⁻¹ s⁻¹; in the assay on bEVs from A. baumannii it was 2000 ± 1000 M⁻¹ s⁻¹. Moreover, the Kd in assay [1] amounted to 244 ± 39.5 µM; in the assay on bEVs from E. coli ΔtolA it was 381 ± 22.6 µM; on bEVs from P. aeruginosa, 749 ± 117 µM; at bEVs from K. pneumoniae, 694 ± 37.3 µM; on bEVs from A. baumannii, 389 ± 32.5 µM.
Consider `N=C(N)NCCC[C@@H]1NC(=O)[C@H](Cc2c[nH]c3ccccc23)NC(=O)[C@H](CCCNC(=N)N)NC(=O)[C@H](Cc2c[nH]c3ccccc23)NC(=O)[C@H](CCCNC(=N)N)NC(=O)[C@H](Cc2c[nH]c3ccccc23)NC1=O` [c-WRWRWR] (cyclo(WRWRWR)), for which the MIC with E. coli ΔtolA JW0729-KC is 128 µg/mL (≈ 125 µM); against P. aeruginosa K34-7 (K34-7, 18 h), more than 256 µg/mL; in the assay with A. baumannii K47-42 (K47-42, 18 h), more than 256 µg/mL; against K. pneumoniae K47-25 (K47-25, 18 h), more than 256 µg/mL.
`NCCCC[C@@H]1NC(=O)[C@H](CCCCN)NC(=O)[C@H](Cc2c[nH]c3ccccc23)NC(=O)[C@H](Cc2c[nH]c3ccccc23)NC(=O)[C@H](Cc2c[nH]c3ccccc23)NC(=O)[C@H](CCCCN)NC1=O` [c-WWWKKK] (cyclo(WWWKKK)): the MIC with E. coli ΔtolA JW0729-KC was 4 µg/mL (≈ 4.24 µM); with A. baumannii K47-42 (K47-42, 18 h), more than 256 µg/mL; against K. pneumoniae K47-25 (K47-25, 18 h) it was more than 256 µg/mL. The “koff rate constant determined by SPR” value in [1] turned out to be 0.21 ± 0.01 s⁻¹; in the assay on bEVs from E. coli ΔtolA it was 0.62 ± 0.05 s⁻¹; with bEVs from P. aeruginosa, 0.62 ± 0.07 s⁻¹; in the assay on bEVs from K. pneumoniae it was 0.37 ± 0.03 s⁻¹; in the assay on bEVs from A. baumannii, 0.63 ± 0.12 s⁻¹. For the same molecule, the “Calculated kon rate constant” value in assay [1] was 7000 ± 1000 M⁻¹ s⁻¹; with bEVs from E. coli ΔtolA it was 11000 ± 1000 M⁻¹ s⁻¹; in the assay with bEVs from P. aeruginosa, 6000 ± 1000 M⁻¹ s⁻¹; in the assay on bEVs from K. pneumoniae it was 18000 ± 1000 M⁻¹ s⁻¹; in the assay on bEVs from A. baumannii, 6000 ± 2000 M⁻¹ s⁻¹. Moreover, the Kd in assay [1] was 28.3 ± 4.2 µM; in the assay with bEVs from E. coli ΔtolA, 56.5 ± 1 µM; on bEVs from P. aeruginosa it was 100 ± 4.1 µM; at bEVs from K. pneumoniae it was 21 ± 0.7 µM; on bEVs from A. baumannii, 100 ± 13.1 µM.
For the molecule `N=C(N)NCCC[C@@H]1NC(=O)[C@H](CCCNC(=N)N)NC(=O)[C@H](Cc2c[nH]c3ccccc23)NC(=O)[C@H](Cc2c[nH]c3ccccc23)NC(=O)[C@H](Cc2c[nH]c3ccccc23)NC(=O)[C@H](CCCNC(=N)N)NC1=O` [c-WWWRRR] (cyclo(WWWRRR)), the MIC was 4 µg/mL (≈ 3.89 µM) in the assay with E. coli ΔtolA JW0729-KC; more than 256 µg/mL with A. baumannii K47-42 (K47-42, 18 h); 256 µg/mL (≈ 249 µM) with K. pneumoniae K47-25 (K47-25, 18 h). For the same molecule, the “koff rate constant determined by SPR” value in assay [1] worked out at 0.51 ± 0.08 s⁻¹; in the assay with bEVs from E. coli ΔtolA it was 0.18 ± 0.02 s⁻¹; in the assay with bEVs from P. aeruginosa it was 0.37 ± 0.04 s⁻¹; in the assay with bEVs from K. pneumoniae, 0.28 ± 0.01 s⁻¹; with bEVs from A. baumannii, 0.40 ± 0.06 s⁻¹. The “Calculated kon rate constant” value was 11000 ± 1000 M⁻¹ s⁻¹ in [1]; 7000 ± 1000 M⁻¹ s⁻¹ with bEVs from E. coli ΔtolA; 6000 ± 1000 M⁻¹ s⁻¹ in the assay with bEVs from P. aeruginosa; 8000 ± 1000 M⁻¹ s⁻¹ with bEVs from K. pneumoniae; 8000 ± 2000 M⁻¹ s⁻¹ in the assay with bEVs from A. baumannii. Also, the Kd worked out at 47.8 ± 5.2 µM in assay [1]; 27 ± 1.6 µM in the assay on bEVs from E. coli ΔtolA; 59 ± 2.6 µM on bEVs from P. aeruginosa; 35.8 ± 1.3 µM on bEVs from K. pneumoniae; 48.7 ± 2.7 µM at bEVs from A. baumannii.
